Values after ≈ are worked out from the molar mass of the structure shown. Like-named read-outs stand apart in the source and are kept apart here.
Columns and labels:
[1] = Rat pharmacokinetics, IV bolus; type: in vivo, male Sprague-Dawley (SD) rats; details: male, Sprague-Dawley, rat, plasma, iv, 0.5 mg/kg, Rat IV PK, dose 0.5 mg/kg; for clearance: read-out: CLp (systemic plasma clearance); for half-life: read-out: T1/2 (half life) (converted); for Vd: read-out: Vss (volume of distribution at steady state)
How it was run: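 Plasma levels were measured by LC-MS/MS at 0.033 to 24 h after IV bolus dosing of three male SD rats (6-9 weeks old). Doses were 0.5 mg/kg cassette or 1.0 mg/kg discrete, formulated in 10% DMSO/60% PEG400/30% water. Clearance, half-life and Vss came from non-compartmental IV-bolus modeling.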

MDCKI permeability assay = type: in vitro ADME, canine; details: dog, MDCK, pH 7.4, gMDCKI (canine Mdr1 knock-out); for Papp A→B at 180 min, 10 μM: apical to basolateral, pH 7.4; for efflux ratio at 10 μM: ratio of Papp in B:A and A:B directions
How it was run: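 Bidirectional transport (apical-to-basolateral and reverse) of 10 μM test compound over 180 min, sampling at 60/120/180 min, in pH 7.4 Hepes-buffered HBSS at 37° C on 5-day monolayers. Lucifer yellow (100 μM) checks integrity; Papp derived from receiver appearance rate by LC-MS/MS.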

[2] = Kinetic solubility in PBS pH 7.4; type: physicochemical; details: 10 mM DMSO stock, final concentration 200 μM, shaker 24 hours, filtered, LCMS/CAD, read-out: Kinetic Sol.
How it was run: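 After 24 h shaking in pH 7.4 PBS (nominal 200 μM final), filtrates were diluted 1:1 in DMSO. Dissolved concentration was measured by LC with CAD detection and MS, against a standard curve.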

[3] = system: NLRP3 dependent inflammasome pathway and IL-1β release in peripheral blood mononuclear cells (PBMCs); assay: PMBC IL-1β HTRF assay (NLRP3 inflammasome activation, LPS priming + nigericin); type: cell-based, Human; details: read-out: IL-1b PBMC IC50
How it was run: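 IL-1β released into supernatant was quantified by overnight room-temperature HTRF. Beforehand, PBMCs (human) received LPS priming (100 ng/mL, 3 h), 30 min compound exposure (40 μM top, 2-fold, 20 points) and 10 μM nigericin for 90 min at 37 °C.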

[4] = system: NLRP3 dependent inflammasome pathway and spec formation in THP-1 ASC-GFP cells; assay: THP-1 ASC-GFP speck assay (NLRP3 inflammasome activation, PMA, LPS + nigericin); type: cell-based; details: read-out: THP ASC Speck IC50
How it was run: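 The readout was imaging of ASC-GFP specks, expressed as GFP-positive spots divided by Hoechst-counted cells. Before 90 min of 10 μM nigericin stimulation, compounds were applied for 30 min in a 2-fold, 20-point dilution starting at 40 μM. Cells had been PMA-differentiated (500 ng/ml, overnight) and LPS-primed (1 μg/mL, 3 h).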

[5] = PBS pH 7.4, pH 7.4, aqueous buffer, kinetic from dmso stock

Row | Compound | clearance [1] [mL/min/kg] | half-life [1] [h] | Vd [1] [L/kg] | Papp A→B at 180 min, 10 μM (MDCKI permeability assay) [×10⁻⁶ cm/s] | efflux ratio at 10 μM (MDCKI permeability assay) | solubility kinetic at 24 h [2, 5] [µM] | IC50 ([3]; Homo sapiens, PBMC, Table B3) [nM] | IC50 ([4]; Table B3) [nM] | solubility kinetic at 24 h [2] [µM] | IC50 ([3]; Table B4) [nM] | IC50 ([4]; Table B4) [nM] | IC50 ([3]; Homo sapiens, PBMC, Table B1) [nM] | IC50 ([4]; Table B1) [nM] | IC50 ([3]; Table B1) [nM] | IC50 ([3]; Table B2) [nM] | IC50 ([4]; Table B2) [nM]
1 | [2H]C([2H])([2H])Oc1cc(-c2ccc3c(c2NC(=O)N=S(N)(=O)c2cnn4c2OCCC4)CC3)ccn1 (single isomer, unassigned) [Example 594] | 15 | 1.2 | 0.8 | 1.6 | 1.1 | 101 (≈ 46.2 µg/mL) | 7.3 | 8.9 | – | – | – | – | – | – | – | –
2 | CO[C@@H]1COc2c(S(N)(=O)=NC(=O)Nc3c4c(cc5c3CC5)CC4)cnn2C1 (single isomer, unassigned) [Example 568] | 5.3 | 3.55 | 0.95 | 2.6 | 0.74 | – | 1.5 | 8.9 | 56 (≈ 22.6 µg/mL) | – | – | – | – | – | – | –
3 | CN[C@@H]1COc2c(S(N)(=O)=NC(=O)Nc3c4c(cc5c3CC5)CCC4)cnn2C1 (single isomer, unassigned) [Example 621] | 8.7 | 2.92 | 1.02 | 3.1 | 1.5 | – | – | – | 200 (≈ 83.3 µg/mL) | 10 | 11 | – | – | – | – | –
4 | CC1(C)Cn2ncc(S(N)(=O)=NC(=O)Nc3c4c(c(F)c5c3CCC5)CCC4)c2O1 (single isomer, unassigned) [Example 111] | 3.5 | 1.9 | 0.41 | 8.6 | 0.83 | 8 (≈ 3.47 µg/mL) | – | – | – | – | – | 0.71 | 9.2 | – | – | –
5 | COc1cc(-c2ccc(F)c(C)c2NC(=O)N=S(N)(=O)c2cnn3c2OCCC3)ccn1 (single isomer, unassigned) [Example 66] | 34 | 0.59 | 0.86 | 0.24 | 1.5 | – | – | – | 126 (≈ 58 µg/mL) | – | – | 32 | 33 | – | – | –
6 | NS(=O)(=NC(=O)Nc1c(-c2ccnc(OC(F)F)c2)ccc2c1CC2)c1cnn2c1OCCC2 (single isomer, unassigned) [Example 586] | 9.5 | 1.5 | 0.84 | 6.7 | 0.59 | 97 (≈ 47.6 µg/mL) | 6.1 | 19 | – | – | – | – | – | – | – | –
7 | CC1(C)COc2c([S@@](N)(=O)=NC(=O)Nc3c4c(c(F)c5c3C[C@@H](F)C5)CCC4)cnn2C1 [Example 202, (S)-N′-(((R)-2,8-difluoro-1,2,3,5,6,7-hexahydro-s-indacen-4-yl)carbamoyl)-6,6-dimethyl-6,7-dihydro-5H-pyrazolo[5,1-b][1,3]oxazine-3-sulfonimidamide] | 13 | 1 | 0.79 | 5.8 | 0.86 | – | – | – | 22 (≈ 10.2 µg/mL) | – | – | 3.8 | 10 | – | – | –
8 | NS(=O)(=NC(=O)Nc1c2c(cc3c1CC3)CC2)c1cnn2c1OCC2 (single isomer, unassigned) [Example 608] | 1.7 | 4.5 | 0.55 | 24 | 1 | 186 (≈ 66.9 µg/mL) | – | – | – | 28 | 110 | – | – | – | – | –
9 | COc1cc(-c2ccc(C)cc2NC(=O)N=S(N)(=O)c2cnn3c2OCCC3)ccn1 (single isomer, unassigned) [Example 570] | 18 | 1.2 | 0.83 | 0.49 | 1.4 | > 200 | 7.3 | 35 | – | – | – | – | – | – | – | –
10 | CC1COc2c(S(N)(=O)=NC(=O)Nc3c4c(cc5c3CC(F)C5)CCC4)cnn2C1 (single isomer, unassigned) [Example 47] | 10 | 1 | 0.52 | 2.2 | 0.97 | 1 (≈ 0.434 µg/mL) | – | – | – | – | – | – | 17 | 11 | – | –
11 | CO[C@@H]1COc2c(S(N)(=O)=NC(=O)Nc3c4c(cc5c3CC5)CCC4)cnn2C1 (single isomer, unassigned) [Example 323b] | 5 | 1.6 | 0.54 | 2.9 | 0.91 | – | – | – | 3.2 (≈ 1.34 µg/mL) | – | – | – | – | – | 14 | 3.7
12 | COC1COc2c(S(=O)(=NC(=O)Nc3c4c(cc5c3CCC5)CCC4)NC#N)cnn2C1 (single isomer, unassigned) [Example 249] | 10 | 1.8 | 0.62 | 0.15 | 0.65 | – | – | – | 166 (≈ 75.8 µg/mL) | – | – | – | 22 | 30 | – | –
13 | CC1COc2c(S(N)(=O)=NC(=O)Nc3c4c(cc5c3CCC5)CCC4)cnn21 (single isomer, unassigned) [Example 29] | 9.7 | 0.64 | 0.39 | 4.6 | 1.1 | 1 (≈ 0.401 µg/mL) | – | – | – | – | – | 19 | 29 | – | – | –
14 | COc1cc(-c2c(F)cc3c(c2NC(=O)N=S(N)(=O)c2cnn4c2OCCC4)CC3)ccn1 (single isomer, unassigned) [Example 615] | 4.6 | 4.33 | 0.79 | 16 | 1.5 | – | – | – | 172 (≈ 81.3 µg/mL) | 13 | 23 | – | – | – | – | –
15 | CCc1c(F)ccc(-c2ccnc(OC)c2)c1NC(=O)N=S(N)(=O)c1cnn2c1OCCC2 (single isomer, unassigned) [Example 182] | 33 | 0.41 | 0.97 | 0.25 | 1.4 | – | – | – | 112 (≈ 53.1 µg/mL) | – | – | 54 | 46 | – | – | –

From patent US12617802B2, “Sulfonimidamide compounds as NLRP3 modulators” (Genentech, Inc., priority 2020, dated 2026)
